Key:
[1] = test system: ABUTH (Abutilon theophrasti); experiment: Postemergence herbicidal evaluation; type: in vivo, Medic.; details: postemergence
Procedure, shortened: (§1)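 Seedlings grown about two weeks in flats, sprayed, then kept under standard greenhouse care. Rated visually 4–5 weeks after treatment on a 0–9 scale (stand, vigour, malformation, size, chlorosis, overall appearance) relative to untreated control; repeat tests averaged.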

[2] = test system: AMBEL (Ambrosia artemisifolia); experiment: Postemergence herbicidal evaluation; type: in vivo, L.; details: postemergence
Procedure, shortened: as §1

[3] = test system: CASOB (Cassia obtusifolia); experiment: Postemergence herbicidal evaluation; type: in vivo, L.; details: postemergence
Procedure, shortened: as §1

[4] = test system: CHEAL (Chenopodium album); experiment: Postemergence herbicidal evaluation; type: in vivo, L.; details: postemergence
Procedure, shortened: as §1

[5] = test system: GALAP (Galium aparine); experiment: Postemergence herbicidal evaluation; type: in vivo; details: postemergence
Procedure, shortened: as §1

[6] = test system: IPOHE (Ipomoea hederacea); experiment: Postemergence herbicidal evaluation; type: in vivo, (L.) Jacq.; details: postemergence
Procedure, shortened: as §1

[7] = test system: ECHCG (Echinochloa crus-galli); experiment: Postemergence herbicidal evaluation; type: in vivo, (L.) Beau; details: postemergence
Procedure, shortened: as §1

[8] = test system: GLXMAW (Soybean, Williams); experiment: Postemergence herbicidal evaluation; type: in vivo, Glycine max, (L.) Merr. cv Williams; details: postemergence
Procedure, shortened: as §1

[9] = test system: ZEAMX (Corn, Field); experiment: Postemergence herbicidal evaluation; type: in vivo, Zea mays, L.; details: postemergence
Procedure, shortened: as §1

[10] = test system: AMBEL (Ambrosia artemisifolia); experiment: Preemergence herbicidal evaluation; type: in vivo, L.; details: preemergence, rated 4-5 weeks after treatment
Procedure, shortened: (§2)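 Seeds planted in potting soil cups and sprayed preemergence with aqueous acetone compound solution. Greenhouse-grown; rated 4–5 weeks after treatment on a 0-9 visual scale (stand, vigor, malformation, size, chlorosis, appearance) versus control.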

[11] = test system: CASOB (Cassia obtusifolia); experiment: Preemergence herbicidal evaluation; type: in vivo, L.; details: preemergence, rated 4-5 weeks after treatment
Procedure, shortened: as §2

[12] = test system: CHEAL (Chenopodium album); experiment: Preemergence herbicidal evaluation; type: in vivo, L.; details: preemergence, rated 4-5 weeks after treatment
Procedure, shortened: as §2

[13] = test system: GALAP (Galium aparine); experiment: Preemergence herbicidal evaluation; type: in vivo; details: preemergence, rated 4-5 weeks after treatment
Procedure, shortened: as §2

[14] = test system: IPOHE (Ipomoea hederacea); experiment: Preemergence herbicidal evaluation; type: in vivo, (L.) Jacq.; details: preemergence, rated 4-5 weeks after treatment
[15] = test system: GLXMAW (Soybean, Williams); experiment: Preemergence herbicidal evaluation; type: in vivo, Glycine max, (L.) Merr. cv Williams; details: preemergence, rated 4-5 weeks after treatment
[16] = test system: ORYSAT (Rice, Tebonnet); experiment: Preemergence herbicidal evaluation; type: in vivo, Oryza sativa, (L.) Tebonnet; details: preemergence, rated 4-5 weeks after treatment
[17] = test system: TRZAWR (Wheat, Winter, cv Riband); experiment: Preemergence herbicidal evaluation; type: in vivo, Triticum aestivum; details: preemergence, rated 4-5 weeks after treatment
Procedure, shortened: as §2

[18] = test system: ZEAMX (Corn, Field); experiment: Preemergence herbicidal evaluation; type: in vivo, Zea mays, L.; details: preemergence, rated 4-5 weeks after treatment
[19] = test system: ECHORC (Echinochloa oryzoides); experiment: Flooded paddy, preemergence weed control; type: in vivo, Echinochloa oryzoides (Ard.) Fritsch.; details: rated 3-4 weeks after treatment, 0-9 rating scale
Procedure, shortened: (§3)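 Flooded silt loam pots, seeds in upper 0.5 cm, water held 1.5–3 cm deep; greenhouse; visual 0-9 score vs control.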

[20] = test system: CYPIR (Cyperus iria); experiment: Flooded paddy, preemergence weed control; type: in vivo; details: rated 3-4 weeks after treatment, 0-9 rating scale
Procedure, shortened: as §3

[21] = test system: SAGPY (Sagittaria pygmaea); experiment: Flooded paddy, preemergence weed control; type: in vivo, L.; details: rated 3-4 weeks after treatment, 0-9 rating scale
Procedure, shortened: as §3

CSCC1COC(c2nsc3ccc(-n4c(=O)cc(C(F)(F)F)n(C)c4=O)cc23)O1 (centres unmarked) [Compound 84, 1-methyl-3-[3-[4-[(methylthio)methyl]-1,3-dioxolan-2-yl]-1,2-benzisothiazol-5-yl]-6-(trifluoromethyl)uracil]
ABUTH herbicidal rating ([1]; rate 0.0320 kg/ha): 9.0
ABUTH herbicidal rating ([1]; rate 0.0620 kg/ha): 9.0
ABUTH herbicidal rating ([1]; rate 0.1250 kg/ha): 9.0
AMBEL herbicidal rating ([2]; rate 0.0320 kg/ha): 7.5
AMBEL herbicidal rating ([2]; rate 0.0620 kg/ha): 9.0
AMBEL herbicidal rating ([2]; rate 0.1250 kg/ha): 9.0
CASOB herbicidal rating ([3]; rate 0.0320 kg/ha): 7.0
CASOB herbicidal rating ([3]; rate 0.0620 kg/ha): 7.0
CASOB herbicidal rating ([3]; rate 0.1250 kg/ha): 9.0
CHEAL herbicidal rating ([4]; rate 0.0320 kg/ha): 9.0
CHEAL herbicidal rating ([4]; rate 0.0620 kg/ha): 9.0
CHEAL herbicidal rating ([4]; rate 0.1250 kg/ha): 9.0
GALAP herbicidal rating ([5]; rate 0.0320 kg/ha): 6.5
GALAP herbicidal rating ([5]; rate 0.0620 kg/ha): 7.5
GALAP herbicidal rating ([5]; rate 0.1250 kg/ha): 9.0
IPOHE herbicidal rating ([6]; rate 0.0320 kg/ha): 9.0
IPOHE herbicidal rating ([6]; rate 0.0620 kg/ha): 9.0
IPOHE herbicidal rating ([6]; rate 0.1250 kg/ha): 9.0
ECHCG herbicidal rating ([7]; rate 0.0320 kg/ha): 4.5
ECHCG herbicidal rating ([7]; rate 0.0620 kg/ha): 6.5
ECHCG herbicidal rating ([7]; rate 0.1250 kg/ha): 9.0
GLXMAW herbicidal rating ([8]; rate 0.0320 kg/ha): 8.5
GLXMAW herbicidal rating ([8]; rate 0.0620 kg/ha): 9.0
GLXMAW herbicidal rating ([8]; rate 0.1250 kg/ha): 9.0
ZEAMX herbicidal rating ([9]; rate 0.0320 kg/ha): 4.8
ZEAMX herbicidal rating ([9]; rate 0.0620 kg/ha): 6.0
ZEAMX herbicidal rating ([9]; rate 0.1250 kg/ha): 8.5
Preemergence herbicidal rating AMBEL ([10]; rate 0.0620 kg/ha): 9.0
Preemergence herbicidal rating AMBEL ([10]; rate 0.1250 kg/ha): 9.0
Preemergence herbicidal rating AMBEL ([10]; rate 0.2500 kg/ha): 9.0
Preemergence herbicidal rating CASOB ([11]; rate 0.0620 kg/ha): 4.0
Preemergence herbicidal rating CASOB ([11]; rate 0.1250 kg/ha): 8.0
Preemergence herbicidal rating CASOB ([11]; rate 0.2500 kg/ha): 9.0
Preemergence herbicidal rating CHEAL ([12]; rate 0.0620 kg/ha): 9.0
Preemergence herbicidal rating CHEAL ([12]; rate 0.1250 kg/ha): 9.0
Preemergence herbicidal rating CHEAL ([12]; rate 0.2500 kg/ha): 9.0
Preemergence herbicidal rating GALAP ([13]; rate 0.0620 kg/ha): 7.0
Preemergence herbicidal rating GALAP ([13]; rate 0.1250 kg/ha): 8.0
Preemergence herbicidal rating GALAP ([13]; rate 0.2500 kg/ha): 9.0
Preemergence herbicidal rating IPOHE ([14]; rate 0.0620 kg/ha): 6.3
Preemergence herbicidal rating IPOHE ([14]; rate 0.1250 kg/ha): 8.3
Preemergence herbicidal rating IPOHE ([14]; rate 0.2500 kg/ha): 9.0
Preemergence herbicidal rating GLXMAW ([15]; rate 0.0620 kg/ha): 7.0
Preemergence herbicidal rating GLXMAW ([15]; rate 0.1250 kg/ha): 9.0
Preemergence herbicidal rating GLXMAW ([15]; rate 0.2500 kg/ha): 9.0
Preemergence herbicidal rating ORYSAT ([16]; rate 0.0620 kg/ha): 2.5
Preemergence herbicidal rating ORYSAT ([16]; rate 0.1250 kg/ha): 3.5
Preemergence herbicidal rating ORYSAT ([16]; rate 0.2500 kg/ha): 6.0
Preemergence herbicidal rating TRZAWR ([17]; rate 0.0620 kg/ha): 2.0
Preemergence herbicidal rating TRZAWR ([17]; rate 0.1250 kg/ha): 5.0
Preemergence herbicidal rating ZEAMX ([18]; rate 0.0620 kg/ha): 3.7
Preemergence herbicidal rating ZEAMX ([18]; rate 0.1250 kg/ha): 6.3
Preemergence herbicidal rating ZEAMX ([18]; rate 0.2500 kg/ha): 8.0
herbicidal rating, ECHORC ([19]; rate 0.0080 kg/ha): 0.0
herbicidal rating, ECHORC ([19]; rate 0.0320 kg/ha): 7.5
herbicidal rating, ECHORC ([19]; rate 0.1250 kg/ha): 8.0
herbicidal rating, CYPIR ([20]; rate 0.0080 kg/ha): 0.0
herbicidal rating, CYPIR ([20]; rate 0.0320 kg/ha): 1.5
herbicidal rating, CYPIR ([20]; rate 0.1250 kg/ha): 6.0
herbicidal rating, SAGPY ([21]; rate 0.0080 kg/ha): 0.0
herbicidal rating, SAGPY ([21]; rate 0.0320 kg/ha): 0.0
herbicidal rating, SAGPY ([21]; rate 0.1250 kg/ha): 4.0

From US6706663B2, “Herbicidal 3-heterocyclic substituted benzisothiazole and benzisoxazole compounds” (Wyeth, priority 2000, dated 2004)
